Test system: Expi293 cells transfected with His-Halotag
Assay: Library cell penetration assay, cell crash method (Example 6)
Assay type: in vitro ADME, human
Procedure: Animal cells (e.g., Expi293 cells or human HEK 293 cells) were seeded in tissue culture plates and cultured in Opti-MEM media. The cells were set in PETG flasks at a concentration of 6×10^5 cells/mL and a volume of 30 mL. The cell viability was checked to be above 90-93%. The flasks were placed in a shaking incubator at 300 rpm in 8% CO2.
After 24 hours of incubation, for each flask, one 1.5-mL Lo-bind tube and one 2-mL Lo-Bind tube were prepared. In the 1.5-mL tube, 30 μg of polyhistidine-tagged halotag (His-Halotag) plasmid and Opti-MEM media were added to provide a 1-mL mixture. In the 2-mL Lo-Bind tube, 60 μL of ExpiFectamine and 940 μL of Opti-MEM were added. After 5 minutes, the plasmid/Opti-MEM mixture was added to the ExpiFectamine/Opti-MEM mixture. The combined mixture was placed in an incubator at room temperature for 20 minutes, which was subsequently added to the flask.
After 48 hours of transfection, the transfected cells were checked for viability (90% or higher). The transfected cells were transferred to a protein Lo-Bind Eppendorf 96-well deep well plate (1000 μL), where each well contained 1 million cells in 500 μL of Expi293 media.
Solutions of candidate compounds, either individual peptides or peptides from a peptide library (DPLs), were received at a stock concentration of 10 mM and diluted in DMSO and kept in a “Source Plate”. For DPLs, the peptide concentration in the “Source Plate” was 1 mM, whereas for individual peptides, the concentration was either 100 μM (for a final concentration of 100 nM) or 10 μM (for a final concentration of 10 nM). […] of the DPL or individual peptide solution was added in triplicates to the 96-well plate. The cells were kept in a shaking incubator at 300 rpm and 37 ° C., 8% CO2 overnight for about 18-20 hours.
The following day, one of the following two methods was performed: i) capture beads method or ii) cell crash method.
Cell crash method: the 96-well plate was placed in the centrifuge at 300 g for 5 minutes. 720 μL of the supernatant was removed. The cells were resuspended in residual 200 μL of media. The suspensions were transferred to a 96-well v-bottom plate, which was placed in the centrifuge at 300 g for an additional 5 minutes. All remaining media was removed. The cell pellets were washed with 200 μL of PBS, mixed and placed back in the centrifuge at 300 g and 4 ° C. for an additional 5 minutes. The supernatant was removed and 80 μL of PBS was added.
80 μL of eluted proteins/peptides from the capture beads method or the PBD solution from the cell crash method was transferred into a deepwell low binding plate (500 μL). 80 μL of ammonium hydroxide was added. The plate was kept on a shaker at 37 ° C. for 3 hours. The plate was dried in a speedvac overnight.
The following day, the dried cell pellet was resuspended in 70 μL of 47.5% water with 0.1% FA/47.5% ACN with 0.1% FA/10 μM pepmix (10 mM stock)/5% fresh DMSO. The mixture was let sit in the plate for 1 hour to allow the dissolution of the pellet. If the sample appeared cloudy, more resuspension solution was added (50 μL at a time). 50 μL was transferred directly to the mass spec plate and the plate was sealed with the 384-well plate seal.
Once all samples were added (including cell free), the plate was placed in an autosampler of a mass spectrometer. For the mass spectrometry analysis, methods from example 1 were employed.
Results from certain assessment were presented blow. Cell crash method was utilized. Mass Shifted Peptide Theoretical Max signal is signal of an agent comprising —OH obtained when using the DhaA to convert input agent comprising —Cl into product agent comprising —OH form without involving cells (multiple agents may be converted simultaneously; in some embodiments, can be performed library by library). In some embodiments, each library pool plus positive and negative references was tested in a single well, which in some cases contain about a million or so cells. […]

[1] = Mass Shifted Peptide Signal in Cells divided by Theoretical Max Signal per replicate pair, averaged
[2] = library pool tested as mixture, MS signal of unconverted —Cl agent
[3] = library pool tested as mixture, MS signal of —OH agent

SMILES	Peptide Signal in Cells (from cells; agents comprising —Cl) (MS signal of unconverted —Cl agent from cells, library pool or individual peptide)	Mass Shifted Peptide Signal in Cells (MS signal of —OH agent from cells, library pool or individual peptide)	Cell Penetration Score (Mass Shifted Peptide Signal in Cells divided by Mass Shifted Peptide Theoretical Max Signal, averaged across replicates)	Cell Penetration Score [1]	Peptide Signal in Cells (from cells; agents comprising —Cl) [2]	Mass Shifted Peptide Signal in Cells [3]
CC(C)C[C@H](NC(=O)CCC(=O)NCCOCCOCCCCCCCl)C(=O)N[C@H](C(=O)N[C@@H](Cc1ccccc1)C(=O)N[C@]1(C)CCCCCCC=CCCC[C@@](C)(C(=O)N[C@@H](CO)C(=O)N[C@@H](C)C(=O)N[C@@H](C)C(N)=O)NC(=O)[C@H](CC2CCC2)NC(=O)[C@H]([C@@H](C)O)NC(=O)[C@H](C)NC(=O)[C@H](Cc2c[nH]c3ccccc23)NC(=O)[C@H](Cc2ccc(O)cc2)NC(=O)[C@H](CCC(=O)O)NC1=O)[C@@H](C)O [PEP000123, HaloTagO2-Leu-Thr-Phe-R8-Glu-Tyr-Trp-Ala-Thr-Cba-S5-Ser-Ala-Ala-NH2]	1E+07	9E+07	1083			
CNC(=O)[C@H](C)NC(=O)[C@H](C)NC(=O)[C@H](CO)NC(=O)[C@]1(C)CCCC=CCCCCCC[C@@](C)(NC(=O)[C@H](Cc2ccccc2)NC(=O)[C@@H](NC(=O)[C@H](CC(C)C)NC(=O)CCC(=O)NCCOCCOCCCCCCCl)[C@@H](C)O)C(=O)N[C@@H](C)C(=O)N[C@@H](Cc2ccc(O)cc2)C(=O)N[C@@H](Cc2c[nH]c3ccccc23)C(=O)N[C@@H](C)C(=O)N[C@@H](CCC(N)=O)C(=O)N[C@@H](CC2CCC2)C(=O)N1 [PEP000119, HaloTagO2-Leu-Thr-Phe-R8-Ala-Tyr-Trp-Ala-Gln-Cba-S5-Ser-Ala-Ala-NHMe]				304	1E+07	2E+07
CC(C)C[C@H](NC(=O)CCC(=O)NCCOCCOCCCCCCCl)C(=O)N[C@H](C(=O)N[C@@H](Cc1ccccc1)C(=O)N[C@]1(C)CCCCCCC=CCCC[C@@](C)(C(=O)N[C@@H](CO)C(=O)N[C@@H](C)C(=O)N[C@@H](C)C(N)=O)NC(=O)[C@H](CC2CCC2)NC(=O)[C@H](CCC(N)=O)NC(=O)[C@H](C)NC(=O)[C@H](Cc2c[nH]c3ccccc23)NC(=O)[C@H](Cc2ccc(O)cc2)NC(=O)[C@H](CCC(=O)O)NC1=O)[C@@H](C)O [PEP000117, HaloTagO2-Leu-Thr-Phe-R8-Glu-Tyr-Trp-Ala-Gln-Cba-S5-Ser-Ala-Ala-NH2]				1141	1E+05	8E+07
CC(C)C[C@H](NC(=O)CCC(=O)NCCOCCOCCCCCCCl)C(=O)N[C@H](C(=O)N[C@@H](Cc1ccccc1)C(=O)N[C@]1(C)CCCCCCC=CCCC[C@@](C)(C(=O)N[C@@H](CO)C(=O)N[C@@H](C)C(=O)N[C@@H](C)C(N)=O)NC(=O)[C@H](CC2CCC2)NC(=O)[C@H](CCC(N)=O)NC(=O)[C@H](C)NC(=O)[C@H](Cc2c[nH]c3ccccc23)NC(=O)[C@H](Cc2ccc(O)cc2)NC(=O)[C@H]([C@@H](C)O)NC1=O)[C@@H](C)O [PEP000118, HaloTagO2-Leu-Thr-Phe-R8-Thr-Tyr-Trp-Ala-Gln-Cba-S5-Ser-Ala-Ala-NH2]				536	4E+07	4E+07
CNC(=O)[C@H](C)NC(=O)[C@H](C)NC(=O)[C@H](CO)NC(=O)[C@]1(C)CCCC=CCCCCCC[C@@](C)(NC(=O)[C@H](Cc2ccccc2)NC(=O)[C@@H](NC(=O)[C@H](CC(C)C)NC(=O)CCC(=O)NCCOCCOCCCCCCCl)[C@@H](C)O)C(=O)N[C@@H](CCC(=O)O)C(=O)N[C@@H](Cc2ccc(O)cc2)C(=O)N[C@@H](Cc2c[nH]c3ccccc23)C(=O)N[C@@H](C)C(=O)N[C@@H](CCC(N)=O)C(=O)N[C@@H](CC2CCC2)C(=O)N1 (single isomer, unassigned) [PEP000120, HaloTagO2-Leu-Thr-Phe-R8-Glu-Tyr-Trp-Ala-Gln-Cba-S5-Ser-Ala-Ala-NHMe]				757	3E+05	4E+07

— patent publication US20230046728A1, “TECHNOLOGIES USEFUL FOR ASSESSING PERMEABILITY” (FOG PHARMACEUTICALS, INC., priority 2019, published 2023)
